The values below come from patent US20090312356A1, “NICOTINIC AGONISTS SELECTIVE FOR THE ALPHA7 RECEPTOR SUBTYPE, THE PROCESS FOR THE PREPARATION THEREOF AND PHARMACEUTICAL CO[…]” (priority 2006, published 2009).

One series concerns the target T1, human α7 (hα7) receptors (Homo sapiens, UniProt P36544).
T1 construct: expressed in transfected cells
As to the kind of experiment: whole cell patch-clamp electrophysiological recordings, hα7-expressing GH4C1 cells. It counts as cell-based. The note with it: 50 nM.

T1 sequence (P36544 23-502): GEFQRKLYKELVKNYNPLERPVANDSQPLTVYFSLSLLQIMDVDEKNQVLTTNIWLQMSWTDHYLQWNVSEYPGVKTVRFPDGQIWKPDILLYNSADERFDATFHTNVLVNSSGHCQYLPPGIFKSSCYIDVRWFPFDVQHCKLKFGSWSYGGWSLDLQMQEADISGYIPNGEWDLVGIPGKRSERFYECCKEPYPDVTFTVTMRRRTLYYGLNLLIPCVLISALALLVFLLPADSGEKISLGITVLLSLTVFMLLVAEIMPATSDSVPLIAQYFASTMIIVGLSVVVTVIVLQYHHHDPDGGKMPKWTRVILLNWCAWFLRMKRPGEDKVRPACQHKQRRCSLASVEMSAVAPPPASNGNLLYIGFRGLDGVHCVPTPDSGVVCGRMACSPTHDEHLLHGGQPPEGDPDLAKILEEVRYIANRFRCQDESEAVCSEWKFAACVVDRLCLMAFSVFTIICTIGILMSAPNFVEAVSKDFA
Experimental for human α7 (hα7) receptors: α7 Subtype: The human α7 (hα7) receptors were stably expressed in transfected GH4C1 and grown in the presence of geneticin (G418 sulfate, 500 μg/mL) as previously described.^31

`c1ccc(COC2=NOC3(C2)CN2CCC3CC2)cc1` (racemic) gave a melting point greater than 50 °C.
On to `BrC1=NN(c2ccccc2)C2(C1)CN1CCC2CC1` (racemic), for which the melting point was in the range of 203 to 207 °C.
Same read-out and setting: the figure for `CN1OC2(CC1=O)CN1CCC2CC1` (racemic) is 182 to 183 °C.
On to `CCN1C[C@]2(COC(=O)c3ccccc3N3C(=O)C[C@H](C)C3=O)CC[C@H](OC)[C@@]34[C@@H]5C[C@H]6[C@H](OC)[C@@H]5[C@](O)(C[C@@H]6OC)[C@@](O)([C@@H](OC)[C@H]23)[C@@H]14` [methyllycaconitine], for which the “effect on acetylcholine-induced hα7 current” value on human α7 (hα7) receptors was “blocked”.

Usually melting point stands for the temperature of the solid-liquid transition.
